Laboratory results reported in patent US20120251495A1, “PTERIN BASED THERAPIES FOR INFLAMMATORY CONDITIONS” (priority 2008, published 2012).

Key:
[1] = tested on: MDA-MB-231 human breast tumor xenographs; test: Antitumor efficacy in nude mice with MDA-MB-231 xenographs, 2nd experiment; assay type: in vivo, athymic nude mice
Procedure: In the 2nd experiment, twenty-nine athymic nude, also purchased from Harlan Sprague Dawley, Inc. (Indianapolis, Ind.), were each injected subcutaneously with 10×10^6 MDA-MB-231 cancer cells into the right flank. When tumors reached 3-5 mm in size, the mice were divided into five treatment groups of five each and a control group of four mice. […] All the other mice in the 2nd experiment persisted ≧43 days without complications. Experimental groups were treated by oral gavage once daily with the indicated test suspensions or solutions.
The control mice in the 1st experiment were treated with sterile water while the control mice in the 2nd experiment were untreated to evaluate the effect of mouse handling and gavaging upon tumor growth. Daily dosing was for 7 days per week. Animals were restrained but not anesthetized for oral dosing. Tumors were measured twice weekly with calipers and body weights taken twice weekly on the day of tumor measurements. Blood was collected from all animals via cardiac puncture at termination (after 70 to 98 days of treatment) and processed to EDTA plasma for analysis.
The MDA-MB-231 human breast tumor cell lines were supplied by SRI International (Menlo Park, Calif.) and propagated using standard in vitro cell expansion methods. Briefly, cells were grown in L-15 media from Gibco (Cat. No. 11415-064) supplemented with 2 mM L-Glutamine and 10% Fetal Bovine Serum (FBS). The cells were cultured in an incubator with 5% CO2, 37.5° C., and 80% humidity. Cells were harvested with 0.25% (w/v) Trypsin-0.03% (w/v) EDTA solution. Cells were prepared for injection by standard methods to appropriate concentrations. Animals were temporarily restrained but not anesthetized for the inoculation of the tumor cells. Animals were subcutaneously injected with the tumor cells in a 100-200 μl volume.
Each animal was individually tracked for tumor growth by external caliper measurements of protruding tumor. Primary tumor sizes were measured using calipers and an approximate tumor volume calculated using the formula 1/2 (a×b^2), where b was the smaller of two perpendicular diameters.
For each group, the mean and standard error of the mean (SEM) of the ratio V/Vo, Relative Tumor Volume (RTV), were plotted as a function of treatment time after inoculation. V0 was the tumor volume at Day 0, when treatment began.

[2] = tested on: plasma cytokines; test: Plasma cytokine levels (multiplex and single ELISA kits), 2nd experiment; assay type: in vivo, athymic nude mice; conditions: for IL-5: limit of detection 3.0; for IFN-γ / IL-4 / IL-12: limit of detection 3.2; for IL-6: limit of detection 3.9; for IL-1β: limit of detection 4.1
Procedure: Cytokine levels in EDTA plasma from the mice in the 2nd experiment were measured at the UCSD Core Laboratory (San Diego, Calif.) using a multiplex assay kit for IL-1β, IL-2, IL-4, IL-5, IL-10, IL-12, IFN-γ, TNF-α and single ELISA kits for IL-6 and TGF-β1 by R&D Systems. […] For both the 1st and 2nd experiments, those measured cytokine values falling below the limits of detection were set to the higher assay limit for the purposes of the subsequent statistical analyses, and recorded as n.d. (not detectable) in Tables 1 through 3.

[3] = tested on: MDA-MB-231 xenograph tumors; test: Combined analysis of DCP + control mice: Day 42,43 relative tumor volume and DCP/APCP; assay type: in vivo, nude mice
Procedure: Standard ANOVA models for group effects, curve fitting, and stepwise regression analyses were carried out using SPSS Graduate Pack 15.0 for Windows (2006), with p<0.05 used to determine significance.
Table 7 gives the plasma cytokine and relative tumor volume Spearman rank order correlations for the 12 DCP+ control mice (Control [n=3; from 1st experiment]; 23 mg/(kg d) DCP [n=5; from 2nd experiment]; and 69 mg/(kg d) DCP [n=4; from 2nd experiment]).
To further determine significant causal and correlational linkages among DCP dosage, plasma cytokine changes, and relative tumor volume, the following curve fitting analyses were carried out with the 12 DCP+ control mice. First, plotting DCP versus Day 42,43 Relative Tumor Volume yielded a significant quadratic relationship (FIG. 11). Second, curve fitting each cytokine versus Day 42,43 Relative Tumor Volume found no significant linear relationship and only one significant quadratic relationship, i.e., with IL-12 (p=0.004; FIG. 12). Third, plotting DCP versus IL-12 yielded a weakly significant quadratic relationship (p=0.048; FIG. 13).
Substantially more significant analogous plots were generated by first carrying out the Table 8 stepwise regression analysis which derived the DCP antitumor plasma cytokine pattern (DCP/APCP), shown to be a more significant cytokine composite measure than IL-12 taken alone. The Table 8 stepwise regression analysis of the cytokine data from the 12 DCP+ control mice allowed for the calculation of DCP/APCP scores for each mouse. These DCP/APCP scores are plotted versus DCP dosage in […], which illustrates the significant quadratic dose-response relationships of DCP versus the derived plasma DCP/APCP composite measure. From this figure the estimated optimum dosage of DCP for maximum tumor growth inhibition is 42 mg/(kg day), while the estimated optimum dosage for maximum DCP/APCP induction is 44 mg/(kg day).

[4] = tested on: plasma cytokines; test: Plasma cytokine levels by ELISA (LINCOplex), 1st experiment; assay type: in vivo, athymic nude (nu/nu) mice; conditions: for IL-10: limit of detection 24.6
Procedure: Cytokine levels in EDTA plasma from the mice in the 1st experiment were determined by ELISA assay at Alta Analytical Laboratories (San Diego, Calif.) using a LINCOplex Kit (Linco Research). Tryptophan (Trp) and kynurenine (Kyn) concentrations were measured from EDTA plasma samples by high pressure liquid chromatography (HPLC) using 3-nitro-L-tyrosine as the internal standard (Widner et al., 1997). To estimate IDO activity, the kynurenine to tryptophan ratio (Kyn/Trp) was calculated and expressed as μmol kynurenine/mmol tryptophan (Wirleitner, 2003). The values from five mice in the 1st experiment are not included in the summary statistics given in Table 1 for the following reasons. One mouse from each of the four treatment groups was used to test the effects of mega dosing, i.e., with (1:4 mol:mol) calcium pterin at 100 mg/kg/day after Day 60 of treatment, and are excluded. Also excluded was one mouse from the (1:4 mol:mol) calcium pterin (7 mg/kg/day) group which expired suddenly a few days before blood was collected. Cytokine measurements <3.2 pg/ml are reported as n.d. (not detectable) because the standard curves used in the ELISA assays were not calibrated below that level.
Cytokine levels in EDTA plasma from the mice in the 1st experiment were determined by ELISA assay at Alta Analytical Laboratories (San Diego, Calif.) using a LINCOplex Kit (Linco Research).
Cytokine levels in EDTA plasma from the mice in the 2nd experiment were measured at the UCSD Core Laboratory (San Diego, Calif.) using a multiplex assay kit for IL-1β, IL-2, IL-4, IL-5, IL-10, IL-12, IFN-γ, TNF-α and single ELISA kits for IL-6 and TGF-β1 by R&D Systems. EDTA plasma samples from two of the three ungavaged controls were lost due to handling error. For both the 1st and 2nd experiments, those measured cytokine values falling below the limits of detection were set to the higher assay limit for the purposes of the subsequent statistical analyses, and recorded as n.d. (not detectable) in Tables 1 through 3.

[5] = Table 4, 7 mg/kg/d, limit of detection 3.2
[6] = Table 4, 21 mg/kg/d, limit of detection 3.2

## Nc1nc([O-])c2nccnc2n1.Nc1nc([O-])c2nccnc2n1.[Ca+2] [DCP, dipterinyl calcium pentahydrate]
[1]; (1:2) 25, DCP 23 and 69, calcium chloride dihydrate 4.2 mg/kg/day
  MDA-MB-231 xenograph growth inhibition: significantly inhibit
[2]; 2nd experiment, 23 mg/kg/d
  IL-5: 20.3 ± 10.2 pg/mL
  IFN-γ: 15.2 ± 4.9 pg/mL
  IL-4: 5.7 ± 1.7 pg/mL
  IL-12: 1141.7 ± 327.1 pg/mL
  IL-6: 49.6 ± 18.5 pg/mL
  IL-1β: 6.2 ± .8 pg/mL
[2]; 2nd experiment, 23 mg/kg/d, limit of detection 12.6
  IL-2: 12.7 ± .11 pg/mL
[2]; 2nd experiment, 23 mg/kg/d, limit of detection 24.6
  IL-10: 37.0 ± 12.4 pg/mL
[2]; 2nd experiment, 69 mg/kg/d
  IL-5: 24.9 ± 17.0 pg/mL
  IFN-γ: 29.9 ± 18.0 pg/mL
  IL-4: 4.0 ± .6 pg/mL
  IL-12: 1050.52 ± 238.7 pg/mL
  IL-6: 37.0 ± 11.3 pg/mL
  IL-1β: 5.3 ± .7 pg/mL
[2]; 2nd experiment, 69 mg/kg/d, limit of detection 31.2
  TGF-β1: 49.5 ± 18.3 pg/mL
[3]; 23 mg/(kg day), Day 42,43 relative tumor volume, combined data
  tumor growth inhibition relative to controls (FIG. 9): significant tumor growth inhibition
[3]; DCP/APCP
  plasma IL-4 correlated to antitumor response: increased
  plasma IL-6 correlated to antitumor response: decreased
  plasma IL-12 correlated to antitumor response: increased
[3]; nude mice with MDA-MB-231 xenograph tumors
  dose range in which antitumor response and cytokine pattern are optimized: 40-46 mg/(kg day)
[3]; quadratic fit, FIG. 11
  estimated optimum dosage for maximum DCP/APCP induction: 44 mg/(kg day)
  estimated optimum dosage for maximum tumor growth inhibition: 42 mg/(kg day)

## (1:4 mol:mol) calcium pterin [CaPterin]
[1]; 21 mg/kg/day, after 43 days
  T/C: 37%
[4]; Table 1, 7 mg/kg/day, plasma
  IL10: 41.9 ± 22.7 pg/mL
  IL-6: 114.7 ± 43.2 pg/mL
  IL-12: 7.7 ± 4.4 pg/mL
  TNF-α: 9.8 ± 1.5 pg/mL
[4]; Table 1, 7 mg/kg/day, plasma at sacrifice, n.d. = <3.2 pg/ml
  IL-1b: 5.2 ± 2.0 pg/mL
[4]; Table 1, 7 mg/kg/day, plasma, n.d. = <3.2 pg/ml
  IFN-γ: 4.7 ± 0.6 pg/mL
[4]; Table 1, 21 mg/kg/day, plasma
  IL10: 50.8 ± 32.3 pg/mL
  IL-6: 121.7 ± 78.1 pg/mL
  IL-12: 243.8 ± 237.8 pg/mL
  TNF-α: 8.5 ± 1.6 pg/mL
[4]; Table 1, 21 mg/kg/day, plasma at sacrifice, n.d. = <3.2 pg/ml
  IL-1b: 3.4 ± 0.2 pg/mL
[4]; [5]
  IFN-γ: 4.7 ± .8 pg/mL
  IL-12: 7.7 ± 4.4 pg/mL
  TNF-α: 9.8 ± 1.5 pg/mL
[4]; Table 4, 7 mg/kg/d, limit of detection 4.1
  IL-1β: 5.8 ± 1.7 pg/mL
[4]; Table 4, 7 mg/kg/d
  IL-10: 49.0 ± 17.0 pg/mL
[4]; Table 4, 7 mg/kg/d, plasma at sacrifice, limit of detection 3.9
  IL-6: 114.7 ± 43.2 pg/mL
[4]; [6]
  IL-12: 243.8 ± 237.8 pg/mL
  TNF-α: 8.5 ± 1.6 pg/mL
[4]; Table 4, 21 mg/kg/d
  IL-10: 61.5 ± 27.3 pg/mL
[4]; Table 4, 21 mg/kg/d, plasma at sacrifice, limit of detection 3.9
  IL-6: 121.7 ± 78.1 pg/mL
[4]; stepwise regression
  plasma IFN-γ response to dosage (ACIP model): decrease
  plasma IL-6 response to dosage (ACIP model): decrease
  plasma IL-10 response to dosage (ACIP model): increase
[2]; 2nd experiment, 21 mg/kg/d
  IL-5: 8.2 ± 1.4 pg/mL
  IFN-γ: 6.2 ± 2.4 pg/mL
  IL-12: 721.6 ± 19.1 pg/mL
  IL-1β: 5.0 ± .7 pg/mL
[2]; 2nd experiment, 21 mg/kg/d, plasma at sacrifice
  IL-6: 30.3 ± 10.2 pg/mL
[2]; at the dosages tested
  increases in plasma IL-12 (FIG. 10): lower, non-significant increases
